Experimental data published in patent US20190060371A1, “METHODS FOR CONTROLLED PROLIFERATION OF VESTIBULAR STEM CELLS / GENERATING INNER EAR HAIR CELLS USING WNT AND TGFBETA-INHIBITION” (Frequency Therapeutics, Inc., priority 2016, published 2019).
Entries after “also recorded” stand apart in the source; their conditions may differ.

Key:
progenitor colonies = test: Differentiation of Sox2 and Sox9 progenitor cell colonies into hair cells; format: cell-based, neonatal mice; conditions: gamma secretase inhibition; confocal images
Procedure: Isolation of stem cells from the inner ear: All animal studies were conducted under an approved institutional protocol according to National Institutes of Health guidelines. For experiments with neonatal mice (postnatal days 1-3), the vestibular organs were dissected in HBSS. The vestibular organs were then treated with TrypLE (Life Technologies) for 15-20 minutes at […]. Single cells obtained by mechanical trituration were filtered (40 μm) and suspended in Matrigel (Corning) for 3D culture.
Differentiation of Sox2 and Sox9 Progenitor Cells Stem cell colonies were differentiated in a 1:1 mixture of DMEM and F12, supplemented with Glutamax (GIBCO), N2, B27 (Invitrogen), with the addition of molecules that drive differentiation, or after removal of growth factors without the addition of molecules that drive differentiation. Small molecules were added to the culture to test their effect on differentiation.
Indicative of hair cells, the cells express Myo VIIa (green) and have actin hair bundles (red).

[1] = tested on: supporting cell/stem cell; test: Expansion of Sox2 and Sox9 positive cells from vestibular organs in 3D Matrigel culture; format: cell-based, neonatal mice; conditions: for colony size compared to Wnt agonism alone (FIG. 5): TGF-beta inhibitor added to CHIR99021 in a background of GF; for cell growth when added to Wnt agonism (C) (total cells, FIG. 2): added to GF+C (CHIR99021), D10
Procedure: Isolation of stem cells from the inner ear: All animal studies were conducted under an approved institutional protocol according to National Institutes of Health guidelines. For experiments with neonatal mice (postnatal days 1-3), the vestibular organs were dissected in HBSS. The vestibular organs were then treated with TrypLE (Life Technologies) for 15-20 minutes at […]. Single cells obtained by mechanical trituration were filtered (40 μm) and suspended in Matrigel (Corning) for 3D culture. Cells were cultured in a 1:1 mixture of DMEM and F12, supplemented with Glutamax (GIBCO), N2, B27 (Invitrogen), EGF (50 ng/mL; Chemicon), bFGF (50 ng/mL; Chemicon), IGF1 (50 ng/mL; Chemicon) and a composition comprising the following agents: CHIR99021 (a Wnt activator), 616452 (a TGF-beta inhibitor), Noggin (a BMP4 inhibitor), VPA (HDAC inhibitor), and combinations there. Media were changed every other day. Total cells were quantified after 10 days (D10) in culture in multiple conditions. (i) GF; ([…]6); wherein On D10, cell colonies were dissociated into single cells using TrypLE (Gibco). The cells were then stained with propidium iodide (PI) and analyzed using a flow cytometer expression. The number of cells were quantified. […] Also on D10, cells were stained with Sox2 (data not shown), as well as Sox9, Rhodamine Phalloidin (stains F-actin), and DAPI (nuclear stain) (see FIG. 3) to assess the identity of the cell populations. Colonies were visualized using confocal microscopy. Sox2 and Sox9 are stem cell markers in the balance organs.

Row | SMILES | colony size compared to Wnt agonism alone (FIG. 5) [1] | cell growth when added to Wnt agonism (C) (total cells, FIG. 2) ([1]; flow cytometer) | also measured
1 | C[C@H](NC(=O)[C@@H](O)c1cc(F)cc(F)c1)C(=O)N[C@@H]1C(=O)N(C)c2ccccc2-c2ccccc21 [LY411575] |  |  | conversion of colonies into hair cells (Myosin VIIA, actin hair bundles; FIG. 4) (progenitor colonies): differentiated into high purity populations of hair cells; also recorded: converted into high purity hair cell populations
2 | Cc1cccc(-c2nn(C(=S)Nc3ccccc3)cc2-c2ccnc3ccccc23)n1 [Compound A-83-01, 3-(6-Methylpyridin-2-yl)-4-(4-quinolyl)-1-phenylthiocarbamoyl-1H-pyrazole] | larger colonies |  | colony size compared to Wnt agonism alone (FIG. 5) ([1]; listed as A 83-01): larger supporting cell/stem cell colonies
3 | Cc1c[nH]c(-c2cnc(NCCNc3ccc(C#N)cn3)nc2-c2ccc(Cl)cc2Cl)n1 [CHIR99021] |  |  | supporting cell/stem cell growth (total cells, FIG. 2) ([1]; added to GF (EGF, FGF, IGF), 10 days (D10), flow cytometer): promoted supporting cell/stem cell growth; supporting cell/stem cell growth and colony formation (FIG. 5) ([1]; in a background of GF): promoted supporting cell/stem cell growth and colony formation
4 | NC(=O)c1ccc(-c2nc(-c3ccc4c(c3)OCO4)c(-c3ccccn3)[nH]2)cc1 [SB-431542, 4-[4-(1,3-Benzodioxol-5-yl)-5-(2-pyridinyl)-1H-imidazol-2-yl]-benzamide] | larger supporting cell/stem cell colonies |  | 
5 | Cc1cccc(-c2n[nH]cc2-c2ccc3ncccc3n2)n1 [Compound 616452, 2-(3-(6-Methylpyridin-2-yl)-1H-pyrazol-4-yl)-1,5-naphthyridine] |  | improved stem cell growth | 
6 | CCCC(CCC)C(=O)O [VPA, valproic acid] |  | inhibited cell growth | 
